Measurements reported in patent US11999747B2, “Furoquinolinediones as inhibitors of TDP2” (THE UNITED STATES OF AMERICA, AS REPRESENTED BY THE …, priority 2015, dated 2024).

Assays:
recombinant human TDP2 = target: T1, recombinant human TDP2 (Homo sapiens, UniProt O95551); assay: Recombinant Tdp2 assay (gel-based, 18-mer ssDNA substrate); assay type: biochemical; conditions: recombinant human TDP2, 25 pM, 15 min, room temperature; read-out: REC TDP2
T1 sequence (O95551 1-362): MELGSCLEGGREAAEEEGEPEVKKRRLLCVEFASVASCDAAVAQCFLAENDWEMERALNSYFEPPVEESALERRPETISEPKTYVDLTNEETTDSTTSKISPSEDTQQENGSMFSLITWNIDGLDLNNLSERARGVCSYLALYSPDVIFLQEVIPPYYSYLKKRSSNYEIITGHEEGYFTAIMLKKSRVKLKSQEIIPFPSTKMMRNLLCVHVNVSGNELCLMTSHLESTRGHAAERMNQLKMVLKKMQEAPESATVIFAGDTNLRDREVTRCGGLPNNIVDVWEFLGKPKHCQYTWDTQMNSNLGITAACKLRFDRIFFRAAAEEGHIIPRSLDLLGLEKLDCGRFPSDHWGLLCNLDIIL
Procedure: TDP2 reactions were carried out as described previously (Example 52) with the following modifications. The 18-mer single-stranded oligonucleotide DNA substrate (α^32P-cordycepin-3′-labeled) was incubated at 1 nM with 25 pM recombinant human TDP2 in the absence or presence of inhibitor for 15 min at room temperature in a buffer containing 50 mM Tris-HCl, pH 7.5, 80 mM KCl, 5 mM MgCl2, 0.1 mM EDTA, 1 mM DTT, 40 μg/mL BSA, and 0.01% Tween 20. Reactions were terminated and treated similarly to WCE and recombinant TDP1 reactions (see Examples 52 and 53).
(§1) All compounds were prepared by the methods shown in Examples 1 to 50. Routine changes in starting materials and reaction conditions, readily apparent to those of skill in the art, were used to make the particular compounds disclosed in Table 1. […] A standard Tdp2 inhibition assay, such as the assay of Example 53, is used to determine the IC50's for the compounds. LC methods are given in the General Methods section.

human TDP2 (hTDP2) = target: T2, human TDP2 (hTDP2) (Homo sapiens, UniProt O95551); assay: Whole cell extract Tdp2 assay (DT40 TDP1-/- cells complemented with human TDP2); assay type: biochemical; conditions: whole cell extract 4 μg/mL of DT40 cells expressing hTDP2, 15 min, room temperature; read-out: WCE hTDP2
T2 construct: expressed in transfected cells; host or cells: DT40 (chicken) TDP1-/- knockout cells complemented with human TDP2; whole cell extract
T2 sequence (O95551 1-362): T1 sequence (O95551 1-362)
Procedure: DT40 knockout cells (1×10^7) for Tdp1 (TDP1−/−) complemented with human TDP2 (hTDP2) were collected, washed, and centrifuged. Cell pellets were then lysed and stored similarly to hTDP1 extracts (see above). The 18-mer single-stranded oligonucleotide was incubated at 1 nM with 4 μg/mL of whole cell extracts in the absence or presence of inhibitor for 15 min at room temperature in the WCE buffer containing 50 mM Tris HCl, pH 7.5, 80 mM KCl, 5 mM MgCl2, 2 mM EDTA, 1 mM DTT, 40 μg/mL BSA, and 0.01% Tween-20. Reactions were terminated by the addition of 1 volume of gel loading buffer [99.5% (v/v) formamide, 5 mM EDTA, 0.01% (w/v) xylene cyanol, and 0.01% (w/v) bromophenol blue]. Samples were then treated and run similarly to the hTDP1 whole cell extract (Example 51).
as §1

Row | IC50 (recombinant human TDP2) | IC50 (human TDP2 (hTDP2)) | Structure (SMILES)
1 | 12 to 37 µM | 1 to 12 µM | COC(=O)c1sccc1OC(=O)c1c(C)oc2c1C(=O)c1ncccc1C2=O [Compound 62]
2 | 12 to 37 µM | 1 to 12 µM | CCOC(=O)c1c(CBr)oc2c1C(=O)c1ncccc1C2=O [Compound 63]
3 | 12 to 37 µM | ≤ 1 µM | CCOC(=O)c1c(C(C)C)oc2c1C(=O)c1ncccc1C2=O [Compound 64]
